Test results reported in patent publication US20260355318A1, “MOLECULAR MACHINES FOR TREATMENT OF CANCER, FUNGAL INFECTIONS, OR BACTERIAL INFECTIONS” (priority 2022, published 2026).

How the values were obtained:
[1] = test system: C. albicans mitochondria and plasma membrane; test: Colocalization analysis by confocal microscopy; type: cell-based, Candida albicans; settings: no light
Procedure: Colocalization analysis of MMs was performed as previously described (Benhamou et al., 2018; Vida and Emr, 1995) with modifications. A single isolated colony was picked from 24-h SDAE plates, diluted in liquid YPD, and grown at 30 ° C for 24 h. Cells were then re-diluted in fresh YPD medium and grown statically in Ibidi u-dishes (Ibidi GmbH, Munich, Germany) for 24 h at 30 ° C The cells were washed, and then YPD medium containing 8 μM MM 1 and 10 nM MitoTracker™ Green (Thermo Fisher Scientific, MA, USA) was added. After a 30-min dark incubation at 30 ° C, the solution was replaced with fresh medium containing 40 nM FM™ 4-64 (Thermo Fisher Scientific, MA, USA). Cells were immediately imaged in a Nikon Al—RSI confocal system mounted on a Nikon Ti-E widefield fluorescence microscope (Nikon Corporation, NY, USA). Cells were imaged directly on the Ibidi imaging dish using a 60×water immersion objective (numerical aperture of 1.27, 0.17 mm working distance). Colocalization was calculated in the Fiji version of ImageJ using the Colocalization Threshold tool and the Coloc-2 plugin.

[2] = test system: B. megaterium; test: MIC, B. megaterium; type: cell-based, Bacillus megaterium; settings: Priestia megaterium, 405 nm light
Procedure: The appropriate volume of an MM stock at 8 mM necessary to achieve a concentration ranging from 0.3125 to 40 μM was pipetted into a 2 mL microcentrifuge tube to which 1 mL of cell suspension prepared as previously described was added. Corresponding negative controls (DMSO only) were prepared in the same way. The mixture was gently mixed by pipetting and incubated in the dark at 30 or 37 ° C, depending on the strain, for 30 min with agitation (220 rpm). Afterward, MM- or DMSO-treated cells were dispensed in one well of a 24-well plate positioned in the center of the light beam (405 nm LED Light, Prizmatix, UHP—F-5-405) placed at the appropriate distance necessary to achieve the desired light intensity of 304 mW cm-2, 146 mW cm2 or 87 mW cm2, as measured with a handheld digital power meter console coupled to an S415C thermal power sensor head (Thorlabs, Newton, MA, USA). The temperature during irradiation was monitored using a thermocouple probe (Model SC-TT-K-30-36-PP; Omega Engineering, Inc., Stanford, CT, USA). Samples were agitated during irradiation. Dark controls were prepared as previously described except that no irradiation was provided. […]

[3] = Singlet oxygen generation (DPBF); settings: irradiated
Description: Percentage of DCFH-DA-(FIG. 45E) and APF-(FIG. 45F) positive cells, as detected using flow cytometry. UV-VIS spectra of the singlet oxygen trap DPBF in the presence of the fast antibacterial motor MM 1 (FIG. 45G) or the inert slow motor ARV 3-202 (FIG. 45H). (FIG. 451) Rate of decrease of the absorption of DPBF at 410 nm, indicative of singlet oxygen generation, in the presence of MM 1 or its slow analog ARV 3-202. […] Flow cytometry data (at least 10 000 cells) was acquired in a spectral analyzer (Sony SA3800) and analyzed using FlowJo software. Results are shown as the mean of at least 3 biological replicas±standard error of the mean. Comparisons between samples were performed in GraphPad Prism 8 using a Kruskal-Wallis test for comparison between three or more samples or an unpaired t-test for comparisons between two samples. * p<0.05. not significant=n.s.

[4] = test system: E. coli transcripts; test: GO enrichment analysis of transcripts more abundant in DMSO controls than in MM 1-treated E. coli; type: cell-based, Escherichia coli; settings: more abundant in DMSO controls than at 0.5×MIC, 405 nm
Procedure: Gene ontology (GO) enrichment analysis of the transcripts displaying significant differences (p<0.05) in abundance between MM- and DMSO-treated cells was performed using Panther (http://pantherdb.org/) using the Fisher's Exact test. Results were corrected for the false discovery rate (FDR).

[5] = cytosolic small ribosomal subunit
[6] = integral component of plasma membrane
[7] = intracellular anatomical structure
[8] = intracellular non-membrane-bounded organelle
[9] = intrinsic component of membrane
[10] = intrinsic component of plasma membrane
[11] = plasma membrane protein complex
[12] = plasma membrane respiratory chain complex I

With C[C@@H]1Cc2ccc3ccccc3c2/C1=C1\c2ccccc2Sc2cc(NCCN(C)C)ccc21 [MM 1, N^1N^1-dimethyl-N^2-(9-(2-methyl-2,3-dihydro-1H-cyclopenta[a]naphthalen-1-ylidene)-9H-thioxanthen-3-yl) ethane-1,2-diamine] the “areal colocalization with FM 4-64” value [1] was 5.2%, the “areal colocalization with MitoTracker Green” value [1] was 52.5% and the MIC [2] was 0.078 µM. The singlet oxygen generation [3] was “lower than that of its slow, inert counterpart”, the “Fold Enrichment” value ([4]; NADH dehydrogenase complex) was 3.02 and the “transcripts significantly enriched in DMSO controls, #” value (from here on “transcripts significantly enriched”) ([4]; NADH dehydrogenase complex) was 15. The “Fold Enrichment” value ([4]; Unclassified (−)) was “.71”, the “transcripts significantly enriched” value ([4]; Unclassified (−)) was 300 and the “Fold Enrichment” value ([4]; catalytic complex) was 1.51. For the same compound, the “transcripts significantly enriched” value ([4]; catalytic complex) was 129, the “Fold Enrichment” value ([4]; cell periphery) was 1.15 and the “transcripts significantly enriched” value ([4]; cell periphery) was 454. For the same compound, the “Fold Enrichment” value ([4]; cellular anatomical entity) was 1.14, the “transcripts significantly enriched” value ([4]; cellular anatomical entity) was 969 and the “Fold Enrichment” value ([4]; cytoplasm) was 1.18. The “transcripts significantly enriched” value ([4]; cytoplasm) was 487, the “Fold Enrichment” value ([4]; cytosol) was 1.28 and the “transcripts significantly enriched” value ([4]; cytosol) was 394. The “transcripts significantly enriched” value ([4]; cytosolic large ribosomal subunit) was 25, the “Fold Enrichment” value ([4]; cytosolic ribosome) was 2.64 and the “transcripts significantly enriched” value ([4]; cytosolic ribosome) was 44. For the same compound, the “Fold Enrichment” value [4, 5] was 2.60, the “transcripts significantly enriched” value [4, 5] was 19 and the “Fold Enrichment” value ([4]; integral component of membrane) was 1.20. For the same compound, the “transcripts significantly enriched” value ([4]; integral component of membrane) was 386, the “Fold Enrichment” value [4, 6] was 1.27 and the “transcripts significantly enriched” value [4, 6] was 216. The “Fold Enrichment” value [4, 7] was 1.20, the “transcripts significantly enriched” value [4, 7] was 509 and the “Fold Enrichment” value [4, 8] was 2.09. The “transcripts significantly enriched” value [4, 8] was 61, the “Fold Enrichment” value ([4]; intracellular organelle) was 2.01 and the “transcripts significantly enriched” value ([4]; intracellular organelle) was 63. The “Fold Enrichment” value [4, 9] was 1.19, the “transcripts significantly enriched” value [4, 9] was 392 and the “Fold Enrichment” value [4, 10] was 1.29. The “transcripts significantly enriched” value [4, 10] was 225, the “Fold Enrichment” value ([4]; large ribosomal subunit) was 2.67 and the “transcripts significantly enriched” value ([4]; large ribosomal subunit) was 25. For the same compound, the “Fold Enrichment” value ([4]; membrane protein complex) was 1.55, the “transcripts significantly enriched” value ([4]; membrane protein complex) was 98 and the “Fold Enrichment” value ([4]; membrane) was 1.16. For the same compound, the “transcripts significantly enriched” value ([4]; membrane) was 470, the “Fold Enrichment” value ([4]; non-membrane-bounded organelle) was 1.68 and the “transcripts significantly enriched” value ([4]; non-membrane-bounded organelle) was 64. For the same compound, the “Fold Enrichment” value ([4]; organelle) was 1.65, the “transcripts significantly enriched” value ([4]; organelle) was 66 and the “Fold Enrichment” value ([4]; oxidoreductase complex) was 2.47. The “transcripts significantly enriched” value ([4]; oxidoreductase complex) was 47, the “Fold Enrichment” value [4, 11] was 1.51 and the “transcripts significantly enriched” value [4, 11] was 73. For the same compound, the “Fold Enrichment” value ([4]; plasma membrane respirasome) was 2.99, the “transcripts significantly enriched” value ([4]; plasma membrane respirasome) was 21 and the “Fold Enrichment” value [4, 12] was 2.99. The “transcripts significantly enriched” value [4, 12] was 14, the “Fold Enrichment” value ([4]; plasma membrane) was 1.19 and the “transcripts significantly enriched” value ([4]; plasma membrane) was 431. The “Fold Enrichment” value ([4]; protein-containing complex) was 1.47, the “transcripts significantly enriched” value ([4]; protein-containing complex) was 258 and the “Fold Enrichment” value ([4]; respirasome) was 3.04. For the same compound, the “transcripts significantly enriched” value ([4]; respirasome) was 24, the “Fold Enrichment” value ([4]; respiratory chain complex I) was 2.99 and the “transcripts significantly enriched” value ([4]; respiratory chain complex I) was 14. The “Fold Enrichment” value ([4]; respiratory chain complex) was 3.01, the “transcripts significantly enriched” value ([4]; respiratory chain complex) was 22 and the “Fold Enrichment” value ([4]; ribonucleoprotein complex) was 2.61. For the same compound, the “transcripts significantly enriched” value ([4]; ribonucleoprotein complex) was 45, the “Fold Enrichment” value ([4]; ribosomal subunit) was 2.64 and the “transcripts significantly enriched” value ([4]; ribosomal subunit) was 44. The “Fold Enrichment” value ([4]; ribosome) was 2.51, the “transcripts significantly enriched” value ([4]; ribosome) was 47 and the “Fold Enrichment” value ([4]; small ribosomal subunit) was 2.60. For the same compound, the “transcripts significantly enriched” value ([4]; small ribosomal subunit) was 19.
